According to PubChem BioAssay AID2060910 (Molecular Pharmacology Branch, DTP, NCI, 2025):
pIC50: −log10 of the molar value.

Test system: 242566-281-R-J2-PDC complex spheroid viability
Test: Anticancer human tumor 242566-281-R-J2-PDC patient-derived pancreatic carcinoma cell line growth inhibition [RAS]
Conditions: for pIC50: curve of first compound; for viability, T/C: stronger effect = lower value
How it was run: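 Multi-cell-type spheroids: tumor cells plus HUVEC endothelial cells and mesenchymal stem cells. RAS-pathway inhibitors were combined with targeted agents, each dosed in half-log steps down from clinical Cmax, or from 10 microM when Cmax was unknown.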
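Further: spheroids exposed to compound for 7 days before readout.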
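Wherever viability, T/C is given: 100% = DMSO vehicle control wells.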

CC1(O)CCCC1n1c(=O)c(C(F)F)cc2cnc(NC3CCN(S(C)(=O)=O)CC3)nc21 (centres undefined) + CCn1c(-c2cccnc2C(C)OC)c2c3cc(ccc31)N1CCOC(CC(NC(=O)C(C(C)C)N(C)C(=O)C3(F)CCN(C(=O)C#CC(C)(C)N(C)C)CC3)C(=O)N3CCCC(N3)C(=O)OCC(C)(C)C2)C1
pIC50 (second compound 0.000949 µM): 5.20
pIC50 (second compound 0.003 µM): 5.22
pIC50 (second compound 0.00949 µM): 5.11
pIC50 (second compound 0.03 µM): < 5.00
pIC50 (second compound 0.0949 µM): < 5.00
pIC50 (second compound 0.3 µM): 5.20
viability, T/C (second compound 0.000949 µM, first compound 0.0316 µM): 86.4%
viability, T/C (second compound 0.000949 µM, first compound 0.1 µM): 70.1%
viability, T/C (second compound 0.000949 µM, first compound 0.316 µM): 63.5%
viability, T/C (second compound 0.000949 µM, first compound 1 µM): 94.3%
viability, T/C (second compound 0.000949 µM, first compound 3.16 µM): 114%
viability, T/C (second compound 0.000949 µM, first compound 10 µM): 26.9%
viability, T/C (second compound 0.003 µM, first compound 0.0316 µM): 77.3%
viability, T/C (second compound 0.003 µM, first compound 0.1 µM): 63.5%
viability, T/C (second compound 0.003 µM, first compound 0.316 µM): 71.9%
viability, T/C (second compound 0.003 µM, first compound 1 µM): 91.5%
viability, T/C (second compound 0.003 µM, first compound 3.16 µM): 110%
viability, T/C (second compound 0.003 µM, first compound 10 µM): 23.6%
viability, T/C (second compound 0.00949 µM, first compound 0.0316 µM): 84.6%
viability, T/C (second compound 0.00949 µM, first compound 0.1 µM): 62.4%
viability, T/C (second compound 0.00949 µM, first compound 0.316 µM): 70.3%
viability, T/C (second compound 0.00949 µM, first compound 1 µM): 86.8%
viability, T/C (second compound 0.00949 µM, first compound 3.16 µM): 95.9%
viability, T/C (second compound 0.00949 µM, first compound 10 µM): 41.2%
viability, T/C (second compound 0.03 µM, first compound 0.0316 µM): 78.6%
viability, T/C (second compound 0.03 µM, first compound 0.1 µM): 82%
viability, T/C (second compound 0.03 µM, first compound 0.316 µM): 83.9%
viability, T/C (second compound 0.03 µM, first compound 1 µM): 85.8%
viability, T/C (second compound 0.03 µM, first compound 3.16 µM): 84.9%
viability, T/C (second compound 0.03 µM, first compound 10 µM): 53.1%
viability, T/C (second compound 0.0949 µM, first compound 0.0316 µM): 69.1%
viability, T/C (second compound 0.0949 µM, first compound 0.1 µM): 62.8%
viability, T/C (second compound 0.0949 µM, first compound 0.316 µM): 69.6%
viability, T/C (second compound 0.0949 µM, first compound 1 µM): 90%
viability, T/C (second compound 0.0949 µM, first compound 3.16 µM): 90%
viability, T/C (second compound 0.0949 µM, first compound 10 µM): 54.4%
viability, T/C (second compound 0.3 µM, first compound 0.0316 µM): 64.8%
viability, T/C (second compound 0.3 µM, first compound 0.1 µM): 67.4%
viability, T/C (second compound 0.3 µM, first compound 0.316 µM): 71.6%
viability, T/C (second compound 0.3 µM, first compound 1 µM): 78.9%
viability, T/C (second compound 0.3 µM, first compound 3.16 µM): 101%
viability, T/C (second compound 0.3 µM, first compound 10 µM): 32.6%

CCC(CC)c1cc(NC2CCC(N)C2)n2nccc2n1 (centres undefined) + C=CC(=O)N1CCN(c2nc(OCC3CCCN3C)nc3c(F)c(-c4nc(N)cc(C)c4C(F)(F)F)c(Cl)cc23)C(C)C1
pIC50 (second compound 0.00316 µM): 5.34
pIC50 (second compound 0.01 µM): 5.35
pIC50 (second compound 0.0316 µM): 5.43
pIC50 (second compound 0.1 µM): 5.34
pIC50 (second compound 0.316 µM): 5.42
pIC50 (second compound 1 µM): 5.34
viability, T/C (second compound 0.00316 µM, first compound 0.0316 µM): 108%
viability, T/C (second compound 0.00316 µM, first compound 0.1 µM): 141%
viability, T/C (second compound 0.00316 µM, first compound 0.316 µM): 94.3%
viability, T/C (second compound 0.00316 µM, first compound 1 µM): 109%
viability, T/C (second compound 0.00316 µM, first compound 3.16 µM): 72.6%
viability, T/C (second compound 0.00316 µM, first compound 10 µM): 1.71%
viability, T/C (second compound 0.01 µM, first compound 0.0316 µM): 121%
viability, T/C (second compound 0.01 µM, first compound 0.1 µM): 146%
viability, T/C (second compound 0.01 µM, first compound 0.316 µM): 108%
viability, T/C (second compound 0.01 µM, first compound 1 µM): 100%
viability, T/C (second compound 0.01 µM, first compound 3.16 µM): 72.8%
viability, T/C (second compound 0.01 µM, first compound 10 µM): 1.81%
viability, T/C (second compound 0.0316 µM, first compound 0.0316 µM): 129%
viability, T/C (second compound 0.0316 µM, first compound 0.1 µM): 123%
viability, T/C (second compound 0.0316 µM, first compound 0.316 µM): 97.1%
viability, T/C (second compound 0.0316 µM, first compound 1 µM): 98%
viability, T/C (second compound 0.0316 µM, first compound 3.16 µM): 58.3%
viability, T/C (second compound 0.0316 µM, first compound 10 µM): 1.98%
viability, T/C (second compound 0.1 µM, first compound 0.0316 µM): 137%
viability, T/C (second compound 0.1 µM, first compound 0.1 µM): 129%
viability, T/C (second compound 0.1 µM, first compound 0.316 µM): 106%
viability, T/C (second compound 0.1 µM, first compound 1 µM): 96.5%
viability, T/C (second compound 0.1 µM, first compound 3.16 µM): 82.5%
viability, T/C (second compound 0.1 µM, first compound 10 µM): 1.56%
viability, T/C (second compound 0.316 µM, first compound 0.0316 µM): 149%
viability, T/C (second compound 0.316 µM, first compound 0.1 µM): 124%
viability, T/C (second compound 0.316 µM, first compound 0.316 µM): 99.3%
viability, T/C (second compound 0.316 µM, first compound 1 µM): 102%
viability, T/C (second compound 0.316 µM, first compound 3.16 µM): 62.8%
viability, T/C (second compound 0.316 µM, first compound 10 µM): 1.81%
viability, T/C (second compound 1 µM, first compound 0.0316 µM): 125%
viability, T/C (second compound 1 µM, first compound 0.1 µM): 156%
viability, T/C (second compound 1 µM, first compound 0.316 µM): 82.7%
viability, T/C (second compound 1 µM, first compound 1 µM): 115%
viability, T/C (second compound 1 µM, first compound 3.16 µM): 75%
viability, T/C (second compound 1 µM, first compound 10 µM): 1.22%
